Measurements published in patent US11021476B2, “Pyrroloquinoline quinone monosodium and method for producing the same, and composition comprising the same” (Mitsubishi Gas Chemical Company, Inc., priority 2016, dated 2021).

What was measured:
[1] = Thermal stability test (solubility change at 180° C. for 10 minutes); format: physicochemical; conditions: for State of dissolution after heating at 180° C. for 10 minutes (with 100 before heating): solubility from absorbance at 330 nm, solubility before heating = 100; for State of dissolution after heating at 180° C. for 10 minutes: 1 mg heated on hot plate, then 10 mL water, stirred 15 minutes
Experimental: Whether the solubility of crystals changed by heat treatment was tested. […] At this time, the state was recorded. The aqueous solution after the stirring was filtered through a 0.5 μm filter and diluted to 1/10, and absorbance at 330 nm was measured. A change in the solubility of the crystals before and after the heat treatment was examined by this measurement.

Bulk density measurement = format: physicochemical; conditions: 10 mL volumetric flask
Experimental: Bulk density was measured using a 10 mL volumetric flask.

Suspension fluidity test = format: physicochemical; conditions: 100 g/L in water, mixed at room temperature, observed at 4° C.
[2] = Test of penetration into skin; conditions: 5 mg crystals on pig skin, 80 minutes at 37° C.; [(untreated − treated)/untreated brightness]×100
Experimental: The skin of a pig was washed with tap water, and the water was completely wiped off. 5 mg of one of crystals was brought into contact with this skin of the pig and then fixed to the skin by wrapping in plastic wrap. After 80 minutes at 37° C., the tape was peeled, and the skin was washed with tap water to remove the test composition adhering to the skin surface. Evaluation was performed by capturing an image of the test composition by a scanner and measuring a change in the brightness of the skin using image software (product name: Paint (software included with Windows (registered trademark) XP, manufactured by Microsoft Corporation). At this time, the change in the brightness of the skin was calculated by [[brightness of untreated skin−brightness after treatment]/[brightness of untreated skin]]×100.

[3] = Thermal stability test (70° C. color change test); format: physicochemical; conditions: 1 mg crystals in 70° C. oven
Experimental: 1 mg of the crystals obtained in each of Examples 1 and 6 and Comparative Example 2 were placed in a 70° C. oven, and a change in color after 2 hours was observed.

[4] = Reaction with powdered green tea; format: physicochemical; conditions: 2 mg powdered green tea + 1 mg crystals + 100 μL water
Experimental: 2 mg of powdered green tea and 1 mg of the crystals obtained in each of Examples 1 and 6 and Comparative Example 2 were mixed. As a model in which the mixed powder was wet, 100 μL of water was added. […] The crystals 2 were very stable and excellent in powder mixing.

[5] = Solubility and color of mixtures; format: physicochemical
Experimental: Powders were mixed in a proportion shown in Table 3, and the color of the powder was recorded. 1 mL of water was added to a crystal mass of 10 mg at room temperature. […] The aqueous solution after the cooling was centrifuged, and the supernatant liquid was removed. This was diluted with a phosphate buffer, and the solubility was calculated from absorbance at 330 nm.

Compound | State of dissolution after heating at 180° C. for 10 minutes (with 100 before heating) [1] | Bulk specific gravity (Bulk density measurement) [g/mL] | Fluidity when crystals are added to water (Suspension fluidity test) | Penetration (change in the brightness of the skin) [2] | Change in color after 2 hours at 70° C. [3] | Color change of tea leaves [4] | State of dissolution after heating at 180° C. for 10 minutes [1] | Color in form of powder [5] | solubility at 30 min ([5]; thermodynamic from solid, 10 mg in 1 mL water, ultrasonic 5 min, 70 degrees 10 min, cooled 30 min at room temperature, absorbance at 330 nm) [mM] | Solubility ([5]; 10 mg in 1 mL water, ultrasonic 5 min, 70 degrees 10 min, cooled 30 min at room temperature, absorbance at 330 nm) [mM]
O=C(O)c1cc(C(=O)[O-])c2c(n1)C(=O)C(=O)c1cc(C(=O)O)[nH]c1-2.[Na+] [Comparative Example 2, reference compound] | 71 | 0.20 | No | 1.6 | Change to black | changed color to orange |  |  |  | 
O=C(O)c1cc(C(=O)O)c2c(n1)C(=O)C(=O)c1cc(C(=O)O)[nH]c1-2.[Na] [Example 1, Pyrroloquinoline Quinone Monosodium] | 82 | 0.29 | Yes | 8.4 | No change | changed color to orange | All dissolve | Deep red | 4.5 | 
O=C(O)c1cc(C(=O)O)c2c(n1)C(=O)C(=O)c1cc(C(=O)O)[nH]c1-2.[Na].[Na] [Raw material, pyrroloquinoline quinone disodium, reference compound] |  |  |  |  |  |  |  | Red |  | 
Dipyrroloquinoline quinone monosodium [Example 7] | 100 | 0.27 | Yes | 4.3 | No change | did not change color | All dissolve | Black |  | 2.1
